Reference: patent US20070117770A1, “Human ribosomal DNA (rDNA) and ribosomal RNA (rRNA) nucleic acids and uses thereof” (Cylene Pharmaceuticals, Inc., priority 2005, published 2007)

How the values were obtained:
Test in all cases: Protein kinase inhibition assay
Type in all cases: biochemical
CDK2/cyclinE(h) = CDK2/cyclinE(h) (Homo sapiens, UniProt P24941); settings: read-out: percent residual activity of CDK2/cyclinE(h)
Protocol: (§1) Certain compounds were tested for activity in protein kinase inhibition assays. All substrates were dissolved and diluted to working stocks in de-ionized water, apart from histone H1 (10× working stock in 20 mM MOPS pH 7.0), PDKtide (10× working stock in 50 mM Tris pH 7.0) ATF2 (which is typically stored at a 20× working stock in 50 mM Tris pH 7.5, 150 mM NaCl, 0.1 mM EGTA, 0.03% Brij-35, 50% glycerol, 1 mM benzamidine, 0.2 mM PMSF and 0.1% R-mercaptoethanol), KKLNRTLSFAEPG (SEQ ID NO:203) and RRRLSFAEPG (SEQ ID NO:204) (50 mM HEPES pH 7.4) and GGEEEEYFELVKKKK (SEQ ID NO:205) (20 mM MOPS pH 7.0). All kinases were pre-diluted to a 10× working concentration prior to addition into the assay. The composition of the dilution buffer for each kinase is detailed below.
(§2) In a final reaction volume of 25 μl, CDK2/cyclinE (h) (5-10 mU) is incubated with 8 mM MOPS pH 7.0, 0.2 mM EDTA, 0.1 mg/ml histone H1, 10 mM MgAcetate and [gamma-33P-ATP] (specific activity approx. 500 cpm/pmol, concentration as required). The reaction is initiated by the addition of the MgATP mix. After incubation for 40 minutes at room temperature, the reaction is stopped by the addition of 5 μl of a 3% phosphoric acid solution. 10 μl of the reaction is then spotted onto a P30 filtermat and washed three times for 5 minutes in 75 mM phosphoric acid and once in methanol prior to drying and scintillation counting.

IKKα(h) = IKKα(h) (Homo sapiens, UniProt O15111); settings: read-out: percent residual activity of IKKα(h)
Protocol: as §1
as §2, with “IKKa” for “CDK2/cyclinE”, “200 μM peptide,” for “0.1 mg/ml histone H1,”

NEK7(h) = NEK7(h) (Homo sapiens, UniProt Q8TDX7); settings: read-out: percent residual activity of NEK7(h)
Protocol: as §1
as §2, with “μl, NEK7” for “μl, CDK2/cyclinE”, “EDTA, 300 μM FLAKSFGSPNRAYKK (SEQ ID NO:221),” for “EDTA, 0.1 mg/ml histone H1,”, “10 pi” for “10 μl”

PKCμ(h) = PKCμ(h) (Homo sapiens, UniProt Q15139); settings: read-out: percent residual activity of PKCμ(h)
Protocol: as §1
as §2, with “PKCμ” for “CDK2/cyclinE”, “20” for “8”, “REPES” for “MOPS”, “7.4, 0.03% Triton X-100, 30 μM KKLNRTLSVA (SEQ ID NO:212),” for “7.0, 0.2 mM EDTA, 0.1 mg/ml histone H1,”

Syk(h) = Syk(h) (Homo sapiens, UniProt P43405); settings: read-out: percent residual activity of Syk(h)
Protocol: as §1
In a final reaction volume of 25 μl, Syk (h) (5-10 mU) is incubated with 50 mM Tris pH 7.5, 0.1 mM EGTA, 0.1 mM Na3VO4, 0.1% R-mercaptoethanol, 0.1 mg/ml poly(Glu, Tyr) 4:1, 10 mM MgAcetate and [gamma-33P-ATP] (specific activity approx. 500 cpm/pmol, concentration as required). The reaction is initiated by the addition of the MgATP mix. After incubation for 40 minutes at room temperature, the reaction is stopped by the addition of 5 μl of a 3% phosphoric acid solution. […]

TAK1(h) = TAK1(h) (Homo sapiens, UniProt O43318); settings: read-out: percent residual activity of TAK1(h)
Protocol: as §1
as §2, with “TAK1” for “CDK2/cyclinE”, “2” for “0.1”, “casein,” for “histone H1,”

Sequence of TAK1(h) (O43318 1-303 limits assumed): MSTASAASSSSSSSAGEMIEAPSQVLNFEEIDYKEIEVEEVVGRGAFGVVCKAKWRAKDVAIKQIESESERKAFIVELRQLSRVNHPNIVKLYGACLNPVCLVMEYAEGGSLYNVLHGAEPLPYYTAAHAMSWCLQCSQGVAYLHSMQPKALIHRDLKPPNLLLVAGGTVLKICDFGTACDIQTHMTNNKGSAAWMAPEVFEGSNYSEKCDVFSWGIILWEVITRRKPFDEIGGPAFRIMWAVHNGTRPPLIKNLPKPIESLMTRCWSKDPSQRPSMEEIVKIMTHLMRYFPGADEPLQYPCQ
Sequence of IKKα(h) (O15111 whole entry): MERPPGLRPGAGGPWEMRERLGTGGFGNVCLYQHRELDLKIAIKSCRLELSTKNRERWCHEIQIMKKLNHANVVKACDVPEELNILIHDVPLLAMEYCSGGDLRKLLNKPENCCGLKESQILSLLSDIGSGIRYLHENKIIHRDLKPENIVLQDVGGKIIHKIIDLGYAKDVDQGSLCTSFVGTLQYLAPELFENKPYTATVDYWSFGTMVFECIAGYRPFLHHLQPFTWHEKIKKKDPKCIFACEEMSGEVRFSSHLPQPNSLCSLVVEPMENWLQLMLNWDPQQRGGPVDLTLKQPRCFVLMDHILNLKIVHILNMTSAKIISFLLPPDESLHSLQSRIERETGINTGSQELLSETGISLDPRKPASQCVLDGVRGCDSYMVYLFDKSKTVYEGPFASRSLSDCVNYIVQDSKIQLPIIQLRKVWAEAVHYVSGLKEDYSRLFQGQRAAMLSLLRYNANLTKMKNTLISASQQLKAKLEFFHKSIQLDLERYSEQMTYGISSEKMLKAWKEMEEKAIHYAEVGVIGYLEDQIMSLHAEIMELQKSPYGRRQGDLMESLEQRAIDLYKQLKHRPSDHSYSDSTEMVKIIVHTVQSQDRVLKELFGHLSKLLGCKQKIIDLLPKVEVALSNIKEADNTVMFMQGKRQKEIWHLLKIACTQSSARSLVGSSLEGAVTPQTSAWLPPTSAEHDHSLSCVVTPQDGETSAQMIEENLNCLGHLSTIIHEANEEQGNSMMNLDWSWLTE
Sequence of PKCμ(h) (Q15139 whole entry): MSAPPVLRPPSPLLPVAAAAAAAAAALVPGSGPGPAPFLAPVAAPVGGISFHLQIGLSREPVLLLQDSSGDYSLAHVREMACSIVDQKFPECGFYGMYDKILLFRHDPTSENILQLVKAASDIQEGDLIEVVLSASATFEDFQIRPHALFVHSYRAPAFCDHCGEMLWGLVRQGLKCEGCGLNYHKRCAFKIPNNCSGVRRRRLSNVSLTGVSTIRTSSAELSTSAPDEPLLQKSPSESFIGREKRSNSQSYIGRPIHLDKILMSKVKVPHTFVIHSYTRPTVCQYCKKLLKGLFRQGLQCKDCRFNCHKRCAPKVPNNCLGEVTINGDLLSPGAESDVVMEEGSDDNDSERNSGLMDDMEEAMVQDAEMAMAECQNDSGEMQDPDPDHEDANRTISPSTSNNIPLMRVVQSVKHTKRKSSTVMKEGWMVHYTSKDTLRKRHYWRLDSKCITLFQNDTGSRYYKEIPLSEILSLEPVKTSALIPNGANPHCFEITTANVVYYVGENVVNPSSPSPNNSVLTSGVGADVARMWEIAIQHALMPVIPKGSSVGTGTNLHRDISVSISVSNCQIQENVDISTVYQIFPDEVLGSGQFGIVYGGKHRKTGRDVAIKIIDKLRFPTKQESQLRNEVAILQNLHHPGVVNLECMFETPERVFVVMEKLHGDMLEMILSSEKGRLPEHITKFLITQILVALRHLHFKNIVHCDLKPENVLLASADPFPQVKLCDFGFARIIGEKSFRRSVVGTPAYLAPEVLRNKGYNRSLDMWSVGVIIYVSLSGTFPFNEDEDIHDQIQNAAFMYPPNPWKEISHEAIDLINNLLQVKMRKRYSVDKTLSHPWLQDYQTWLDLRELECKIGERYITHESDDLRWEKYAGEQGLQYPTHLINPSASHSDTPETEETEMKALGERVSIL
Sequence of NEK7(h) (Q8TDX7 whole entry): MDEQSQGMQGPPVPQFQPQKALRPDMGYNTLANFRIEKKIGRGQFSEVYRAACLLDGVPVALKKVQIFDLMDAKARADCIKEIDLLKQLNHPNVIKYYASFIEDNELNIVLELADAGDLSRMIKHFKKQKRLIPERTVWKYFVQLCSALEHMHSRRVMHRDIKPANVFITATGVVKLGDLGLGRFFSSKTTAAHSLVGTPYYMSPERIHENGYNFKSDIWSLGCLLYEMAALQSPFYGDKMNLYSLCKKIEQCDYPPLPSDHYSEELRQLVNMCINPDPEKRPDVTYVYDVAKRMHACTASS

CN1CCCC1CCNC(=O)c1cn2c3c(c(N4CCC(c5cnccn5)C4)c(F)cc3c1=O)Oc1cc3ccccc3cc1-2 (stereo not drawn) [Compound A-1]
remaining activity at 2.5 µM (CDK2/cyclinE(h)): 102% | remaining activity at 2.5 µM (IKKα(h)): 68% | remaining activity at 2.5 µM (NEK7(h)): 102% | remaining activity at 2.5 µM (PKCμ(h)): 49% | remaining activity at 2.5 µM (Syk(h)): 67% | remaining activity at 2.5 µM (TAK1(h)): 98%

CC(=O)N1CCN(c2ccc3c(=O)c(C(=O)NCCN4CCCC4)c4n(C)c5ccccc5n4c3n2)CC1 [Compound B-1]
remaining activity at 2.5 µM (CDK2/cyclinE(h)): 117% | remaining activity at 2.5 µM (IKKα(h)): 118% | remaining activity at 2.5 µM (NEK7(h)): 101% | remaining activity at 2.5 µM (PKCμ(h)): 94% | remaining activity at 2.5 µM (Syk(h)): 111% | remaining activity at 2.5 µM (TAK1(h)): 95%
